# Earlier results as cited in patent US7141235B2, “Stabilized gas emulsion containing phospholipid for ultrasound contrast enhancement” (Imcor Pharmaceutical Co., priority 1993, dated 2006).
# Details: in water
row,gel to liquid-crystal phase transition temperature,Structure (SMILES)
1,23.5 °C,"CCCCCCCCCCCCCC(=O)OC[C@H](COP(=O)([O-])OCC[N+](C)(C)C)OC(=O)CCCCCCCCCCCCC [DMPC, dimyristoyl phosphatidylcholine]"
2,55.5 °C,"CCCCCCCCCCCCCCCCCC(=O)OC[C@H](COP(=O)([O-])OCC[N+](C)(C)C)OC(=O)CCCCCCCCCCCCCCCCC [DSPC, distearoyl phosphatidylcholine]"
